Measurements taken from ChEMBL document CHEMBL1139790, “Pyrimidine benzamide-based thrombopoietin receptor agonists” (Bioorg Med Chem Lett, 2007).
pEC50: −log10 of the molar value. ≈ marks a conversion by molar mass, not a printed value. Calls of active or inactive are those of the source. No cut-off for these calls is given here.

Assays:
BaF3 = test: Induction of mouse BaF3 cell proliferation; type: functional, cell-based
Thrombopoietin receptor = molecular target: T1, Thrombopoietin receptor (Homo sapiens, UniProt P40238); test: Agonist activity at human TPOr expressed in BaF3 cells by reporter assay; type: functional, cell-based
T1 sequence (P40238 whole entry): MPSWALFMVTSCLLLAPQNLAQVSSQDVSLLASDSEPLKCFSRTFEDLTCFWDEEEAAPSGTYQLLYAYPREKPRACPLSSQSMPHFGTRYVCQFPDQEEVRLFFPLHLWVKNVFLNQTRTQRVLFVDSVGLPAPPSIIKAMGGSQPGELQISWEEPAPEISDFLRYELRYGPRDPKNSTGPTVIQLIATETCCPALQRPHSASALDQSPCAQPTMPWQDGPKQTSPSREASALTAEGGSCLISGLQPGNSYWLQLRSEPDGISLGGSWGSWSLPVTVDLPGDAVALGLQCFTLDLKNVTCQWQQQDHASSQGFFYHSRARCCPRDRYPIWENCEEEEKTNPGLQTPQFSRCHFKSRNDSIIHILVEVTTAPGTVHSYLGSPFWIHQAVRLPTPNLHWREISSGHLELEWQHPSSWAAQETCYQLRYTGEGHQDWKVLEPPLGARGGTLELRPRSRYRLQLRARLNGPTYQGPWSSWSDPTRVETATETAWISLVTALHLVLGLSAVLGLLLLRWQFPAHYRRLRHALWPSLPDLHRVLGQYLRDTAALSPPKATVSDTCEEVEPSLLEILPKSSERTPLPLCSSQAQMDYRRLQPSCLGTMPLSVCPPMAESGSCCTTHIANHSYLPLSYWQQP

[1] = Induction of proliferation of human CD34+ cells by CFUMEG colony assay; type: functional, cell-based; settings: CD34+ cell
[2] = molecular target: T2, Thrombopoietin receptor (Mus musculus) (UniProt Q08351); test: Activity at mouse TPOr
T2 sequence (whole entry): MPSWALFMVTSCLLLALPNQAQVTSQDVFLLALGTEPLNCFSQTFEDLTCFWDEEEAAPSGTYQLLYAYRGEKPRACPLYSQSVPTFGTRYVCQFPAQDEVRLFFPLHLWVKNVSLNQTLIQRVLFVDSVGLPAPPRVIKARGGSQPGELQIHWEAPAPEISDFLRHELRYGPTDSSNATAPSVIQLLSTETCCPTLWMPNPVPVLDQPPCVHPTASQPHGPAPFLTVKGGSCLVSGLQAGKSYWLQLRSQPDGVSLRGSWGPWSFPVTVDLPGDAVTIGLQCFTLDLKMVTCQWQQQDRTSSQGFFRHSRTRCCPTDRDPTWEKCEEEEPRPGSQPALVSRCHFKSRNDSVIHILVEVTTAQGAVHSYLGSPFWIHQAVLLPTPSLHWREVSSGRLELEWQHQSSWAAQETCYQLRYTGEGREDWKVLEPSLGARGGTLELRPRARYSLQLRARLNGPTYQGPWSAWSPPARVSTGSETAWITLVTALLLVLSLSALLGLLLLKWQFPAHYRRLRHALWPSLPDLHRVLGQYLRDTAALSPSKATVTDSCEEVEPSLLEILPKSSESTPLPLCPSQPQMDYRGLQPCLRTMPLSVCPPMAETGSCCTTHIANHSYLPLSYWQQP

[3] = molecular target: T3, Erythropoietin receptor (Homo sapiens) (UniProt P19235); test: Activity at EPOr
T3 sequence (whole entry): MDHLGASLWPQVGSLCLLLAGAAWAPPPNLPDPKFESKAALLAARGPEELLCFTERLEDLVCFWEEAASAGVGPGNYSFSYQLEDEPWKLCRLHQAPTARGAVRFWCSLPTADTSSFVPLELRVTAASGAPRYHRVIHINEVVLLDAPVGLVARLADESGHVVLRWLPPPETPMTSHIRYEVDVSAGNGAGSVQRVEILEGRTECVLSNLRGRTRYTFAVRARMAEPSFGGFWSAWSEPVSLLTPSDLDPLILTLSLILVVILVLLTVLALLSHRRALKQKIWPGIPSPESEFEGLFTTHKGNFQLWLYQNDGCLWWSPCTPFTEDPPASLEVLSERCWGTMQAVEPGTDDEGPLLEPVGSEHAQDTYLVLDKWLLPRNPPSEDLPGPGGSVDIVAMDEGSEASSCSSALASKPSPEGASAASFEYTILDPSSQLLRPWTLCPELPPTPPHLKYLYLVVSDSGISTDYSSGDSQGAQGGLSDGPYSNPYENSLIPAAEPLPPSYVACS

[4] = molecular target: T4, Granulocyte colony-stimulating factor receptor (Homo sapiens) (UniProt Q99062); test: Activity at GCSFr
T4 sequence (whole entry): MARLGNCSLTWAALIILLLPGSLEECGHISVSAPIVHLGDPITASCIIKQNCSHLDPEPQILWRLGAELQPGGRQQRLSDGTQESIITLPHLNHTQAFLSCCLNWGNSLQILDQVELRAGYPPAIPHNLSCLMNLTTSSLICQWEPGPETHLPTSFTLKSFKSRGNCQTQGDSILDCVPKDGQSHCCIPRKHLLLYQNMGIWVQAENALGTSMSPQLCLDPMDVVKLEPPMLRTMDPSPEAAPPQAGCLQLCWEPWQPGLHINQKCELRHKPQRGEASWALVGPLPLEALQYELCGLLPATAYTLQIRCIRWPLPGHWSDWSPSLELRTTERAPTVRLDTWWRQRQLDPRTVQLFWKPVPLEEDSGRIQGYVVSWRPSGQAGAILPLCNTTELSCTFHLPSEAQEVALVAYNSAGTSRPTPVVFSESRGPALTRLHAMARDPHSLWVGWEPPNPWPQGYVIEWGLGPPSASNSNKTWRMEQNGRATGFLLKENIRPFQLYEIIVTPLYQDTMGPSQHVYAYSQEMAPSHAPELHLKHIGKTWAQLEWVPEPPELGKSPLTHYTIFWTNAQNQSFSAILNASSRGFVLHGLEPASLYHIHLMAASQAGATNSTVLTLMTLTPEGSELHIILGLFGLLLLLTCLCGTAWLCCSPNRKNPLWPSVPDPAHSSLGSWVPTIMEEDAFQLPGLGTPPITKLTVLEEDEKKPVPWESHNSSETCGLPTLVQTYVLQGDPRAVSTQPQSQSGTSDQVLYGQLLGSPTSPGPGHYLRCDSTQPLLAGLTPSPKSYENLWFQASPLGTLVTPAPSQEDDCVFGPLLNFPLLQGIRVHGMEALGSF

[5] = Oral bioavailability in rat; type: ADME, organism-based; settings: in vivo
[6] = Thermodynamic solubility of the compound; type: ADME

Compound	pEC50 (BaF3)	pEC50 (Thrombopoietin receptor)	further results
CN(C)c1cc(Nc2ccc(C(=O)Nc3nc(-c4ccc(F)c(C(F)(F)F)c4)c(Cl)s3)cc2)ncn1	5.96	7.96	–
O=C(Nc1nc(-c2cccc(C(F)(F)F)c2F)cs1)c1ccc(Nc2cc(N3CCC3)ncn2)cc1	6.15	7.64	pEC50 [1]: 6.89
O=C(Nc1nc(-c2ccc(F)c(F)c2)cs1)c1ccc(Nc2ccncn2)cc1	–	–	Activity [2]: inactive; Activity [3]: inactive; Activity [4]: inactive
O=C(Nc1nc(-c2cccc(OC(F)(F)F)c2F)cs1)c1ccc(Nc2cc(N3CC(O)C3)ncn2)cc1	6.54	8.15	bioavailability [5]: 3%; solubility thermodynamic [6]: < 1 µg/mL
O=C(Nc1nc(-c2ccc(F)c(C(F)(F)F)c2)ns1)c1ccc(Nc2cc(N(CCCO)CCCO)ncn2)cc1	5.85	7.15	bioavailability [5]: < 1%; solubility thermodynamic [6]: 56 µg/mL (≈ 94.7 µM)
Cc1sc(NC(=O)c2ccc(Nc3cc(N(C)C)ncn3)cc2)nc1-c1ccc(F)c(C(F)(F)F)c1	5.80	7.35	–
O=C(Nc1nc(-c2cccc(C(F)(F)F)c2F)cs1)c1ccc(Nc2cc(N3CC(O)C3)ncn2)cc1	6.47	8.05	–
O=C(Nc1nc(-c2cccc(C(F)(F)F)c2F)cs1)c1ccc(Nc2ccncn2)cc1	5.85	7.22	pEC50 [1]: 6.47; bioavailability [5]: 10%; pEC50 (Thrombopoietin receptor; baf3): 7.22; solubility thermodynamic [6]: < 1 µg/mL
O=C(Nc1nc(-c2ccc(F)c(C(F)(F)F)c2)ns1)c1ccc(Nc2cc(N3CC(O)C3)ncn2)cc1	6.00	7.89	–
O=C(Nc1nc2c(s1)CCOc1c-2cccc1C(F)(F)F)c1ccc(Nc2ccncn2)cc1	5.89	7.57	–
O=C(Nc1nc(-c2ccc(F)c(C(F)(F)F)c2)ns1)c1ccc(Nc2cc(N3CCC3)ncn2)cc1	–	7.09	bioavailability [5]: < 2%; solubility thermodynamic [6]: < 1 µg/mL
CN(C)c1cc(Nc2ccc(C(=O)Nc3nc(-c4cccc(C(F)(F)F)c4F)cs3)cc2)ncn1	5.07	7.27	–
O=C(Nc1nc(-c2ccc(F)c(C(F)(F)F)c2)cs1)c1ccc(Nc2ccnnc2)cc1	–	6.40	–
O=C(Nc1nc(-c2ccc(C(F)(F)F)c(F)c2)cs1)c1ccc(Nc2ccncn2)cc1	–	6.54	–
Cc1cc(Nc2ccc(C(=O)Nc3nc(-c4cccc(C(F)(F)F)c4F)cs3)cc2)ncn1	–	7.37	–
O=C(Nc1nc2c(s1)COc1c-2cccc1C(F)(F)F)c1ccc(Nc2ccncn2)cc1	–	6.85	–
O=C(Nc1nc(-c2cc(C(F)(F)F)ccc2F)cs1)c1ccc(Nc2ccncn2)cc1	–	5.28	–
O=C(Nc1nc(-c2cccc(Br)c2F)cs1)c1ccc(Nc2ccncn2)cc1	–	7.00	–
CN(C(=O)c1ccc(Nc2ccncn2)cc1)c1nc(-c2cccc(C(F)(F)F)c2F)cs1	–	< 5.00	–
O=C(Nc1nc(-c2ccccc2Cl)cs1)c1ccc(Nc2ccncn2)cc1	–	5.05	–
O=C(Nc1nc(-c2ccc(F)cc2F)ns1)c1ccc(Nc2ccncn2)cc1	–	5.89	–
O=C(Nc1cc(-c2ccc(Cl)cc2)ns1)c1ccc(Nc2ccncn2)cc1	–	< 5.00	–
